Experimental data as given in patent US12144823B2, “Porous silicate and/or aluminosilicate matrix/cerium oxide nanoparticle nanocarrier for combination anti-cancer therapeutic and antioxidant delivery” (Imam Abdulrahman Bin Faisal University, priority 2022, dated 2024).
Entries after “also recorded” stand apart in the source; their conditions may differ.

Key:
MCF-7 cells = assay: Imaging of treated cells by light microscopy, MCF-7; format: cell-based, Human; conditions: 200 or 400 μg/mL, 48 h, light microscope
Procedure: (§1) The cells were observed under the light microscope after each time point to evaluate the morphological changes and study the NPs effect on cell proliferation without fixation. The images were taken by light microscope (TS100F Eclipse, Nikon, Tokyo, Japan) that can work with a digital camera and combined with its Nikon microscope program.
(§2) The effect of nanocomposites on cell morphology was imaged by using a light microscope after each time point. MCF-7 cells and HFF-1 cells were treated with either 200 or 400 μg/mL for 48 h to evaluate the average morphological changes. […] In the microscopy images, the magnification was ×100 and the scale bar represents 100 μm.

[1] = test system: HFF-1 (Human Foreskin Fibroblasts) cells; assay: Cytotoxicity assay by MTT, HFF-1 cells; format: cell-based
Procedure: (§3) MCF-7 (Human Breast Cancer) and HFF-1 (Human Foreskin Fibroblasts) cell lines were sub-cultured in DMEM (Dullbecco's Modified Eagle Medium) supplemented with 1% of L-Glutamine, 10% of Fetal Bovine Serum as FBS (Gibco), 1% of Non-Essential Amino Acid (Gibco), and 1% of penicillin and streptomycin. The cells were cultured in a humidified CO2 incubator at 37° C. (Thermoscientific, Waltham, MA). The cells were seeded for in a 96 well plate (Thermo Fisher, Waltham, USA) with 10,000 cells per well. […] The cells were tested after 24, 48 and 72 hours using (Thiazolyl Blue Tetrazolium Bromide, MOLEQULE-ON) MTT assay.
(§4) Cultured media along with NPs were removed from 96 well plates and the cells were washed with 1×PBS.
(§5) The statistical analysis was done for determining the MTT cytotoxicity assay, using an unpaired two-way ANOVA (GraphPad Prism software), P-value is set at <0.05 (* if P≤0.05, ** if P≤0.01, *** if P≤0.001, **** if P≤0.0001) were considered statistically significant. The results were calculated from different three experiments.

HFF-1 cells = assay: Imaging of treated cells by light microscopy, HFF-1; format: cell-based, Human; conditions: 200 or 400 μg/mL, 48 h, light microscope
Procedure: as §1, §2

[2] = test system: MCF-7 (Human Breast Cancer) cells; assay: Cytotoxicity assay by MTT, MCF-7 cells; format: cell-based
Procedure: as §3, §4, §5
The cytotoxicity study was performed to evaluate the toxicity of CeO2 nanoparticles against breast cancer cell line (MCF-7) and a non-cancerous cell line of human foreskin fibroblast (HFF-1). Different concentrations were applied (see Table 1) for 24, 48 and 72 hours, then, cytotoxicity was measured by MTT assay after each period of treatment. The data were plotted in scattered graphs using excel to calculate the EC50 values from the exponential trendline generated equation. The statistical significance with the p value and standard deviation were analyzed by two-way ANOVA test in GraphPad, Prism software. […] In addition, EC50 values were calculated to estimate the half maximal cytotoxic effect after each time point.

Compound | effect on cell morphology and proliferation, MCF-7 (MCF-7 cells) | EC50 Value of treated HFF-1 cells, 24 h ([1]; HFF-1, MTT, 24 h treatment) | EC50 Value of treated HFF-1 cells, 48 h ([1]; HFF-1, MTT, 48 h treatment) | EC50 Value of treated HFF-1 cells, 72 h ([1]; HFF-1, MTT, 72 h treatment) | effect on cell morphology and proliferation, HFF-1 (HFF-1 cells) | EC50 Value of treated MCF-7 cells, 24 h ([2]; MCF-7, MTT, 24 h treatment) | EC50 Value of treated MCF-7 cells, 48 h ([2]; MCF-7, MTT, 48 h treatment) | EC50 Value of treated MCF-7 cells, 72 h ([2]; MCF-7, MTT, 72 h treatment) | cytotoxic efficacy against HFF-1 cells (in words) ([1]; MTT, 24-72 h) | cytotoxic efficacy against MCF-7 cells (in words) ([2]; MTT, 24-72 h)
N.N.[Cl][Pt][Cl] [cisplatin] | cell death morphological structures | 52.3 µg/mL | 12.62 µg/mL | 6.58 µg/mL | cell death morphological structures | 21.58 µg/mL | 8.03 µg/mL | 3.12 µg/mL | – | –
COc1cc(/C=C/C(=O)CC(=O)/C=C/c2ccc(O)c(OC)c2)ccc1O [curcumin] | slightly affected | – | – | – | slightly affected | – | – | – | less efficacy | lowest efficacy with high cell viability percentages; also recorded: rapidly enhanced the cell growth
